From the Kinase Knowledgebase extract (Sharma et al. 2016)

Key:
[1] = molecular target: EGFR (human) (UniProt P00533)
[2] = molecular target: ROCK2 (human) (UniProt O75116); assay: Enzyme Assay
[3] = molecular target: MAPK14 (human) (UniProt Q16539); assay: Enzyme Assay
Sequence of MAPK14 (human) (Q16539 whole entry, looked up): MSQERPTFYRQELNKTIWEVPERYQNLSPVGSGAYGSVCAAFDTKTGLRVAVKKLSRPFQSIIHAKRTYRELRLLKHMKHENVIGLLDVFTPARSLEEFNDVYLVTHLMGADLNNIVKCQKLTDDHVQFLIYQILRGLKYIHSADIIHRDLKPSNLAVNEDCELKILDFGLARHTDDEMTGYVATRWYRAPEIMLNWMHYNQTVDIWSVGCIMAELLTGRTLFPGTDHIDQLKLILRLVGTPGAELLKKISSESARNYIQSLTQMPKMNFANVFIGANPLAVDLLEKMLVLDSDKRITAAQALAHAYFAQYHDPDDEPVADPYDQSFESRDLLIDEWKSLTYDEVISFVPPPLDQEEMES

Sequence of ROCK2 (human) (O75116 whole entry, looked up): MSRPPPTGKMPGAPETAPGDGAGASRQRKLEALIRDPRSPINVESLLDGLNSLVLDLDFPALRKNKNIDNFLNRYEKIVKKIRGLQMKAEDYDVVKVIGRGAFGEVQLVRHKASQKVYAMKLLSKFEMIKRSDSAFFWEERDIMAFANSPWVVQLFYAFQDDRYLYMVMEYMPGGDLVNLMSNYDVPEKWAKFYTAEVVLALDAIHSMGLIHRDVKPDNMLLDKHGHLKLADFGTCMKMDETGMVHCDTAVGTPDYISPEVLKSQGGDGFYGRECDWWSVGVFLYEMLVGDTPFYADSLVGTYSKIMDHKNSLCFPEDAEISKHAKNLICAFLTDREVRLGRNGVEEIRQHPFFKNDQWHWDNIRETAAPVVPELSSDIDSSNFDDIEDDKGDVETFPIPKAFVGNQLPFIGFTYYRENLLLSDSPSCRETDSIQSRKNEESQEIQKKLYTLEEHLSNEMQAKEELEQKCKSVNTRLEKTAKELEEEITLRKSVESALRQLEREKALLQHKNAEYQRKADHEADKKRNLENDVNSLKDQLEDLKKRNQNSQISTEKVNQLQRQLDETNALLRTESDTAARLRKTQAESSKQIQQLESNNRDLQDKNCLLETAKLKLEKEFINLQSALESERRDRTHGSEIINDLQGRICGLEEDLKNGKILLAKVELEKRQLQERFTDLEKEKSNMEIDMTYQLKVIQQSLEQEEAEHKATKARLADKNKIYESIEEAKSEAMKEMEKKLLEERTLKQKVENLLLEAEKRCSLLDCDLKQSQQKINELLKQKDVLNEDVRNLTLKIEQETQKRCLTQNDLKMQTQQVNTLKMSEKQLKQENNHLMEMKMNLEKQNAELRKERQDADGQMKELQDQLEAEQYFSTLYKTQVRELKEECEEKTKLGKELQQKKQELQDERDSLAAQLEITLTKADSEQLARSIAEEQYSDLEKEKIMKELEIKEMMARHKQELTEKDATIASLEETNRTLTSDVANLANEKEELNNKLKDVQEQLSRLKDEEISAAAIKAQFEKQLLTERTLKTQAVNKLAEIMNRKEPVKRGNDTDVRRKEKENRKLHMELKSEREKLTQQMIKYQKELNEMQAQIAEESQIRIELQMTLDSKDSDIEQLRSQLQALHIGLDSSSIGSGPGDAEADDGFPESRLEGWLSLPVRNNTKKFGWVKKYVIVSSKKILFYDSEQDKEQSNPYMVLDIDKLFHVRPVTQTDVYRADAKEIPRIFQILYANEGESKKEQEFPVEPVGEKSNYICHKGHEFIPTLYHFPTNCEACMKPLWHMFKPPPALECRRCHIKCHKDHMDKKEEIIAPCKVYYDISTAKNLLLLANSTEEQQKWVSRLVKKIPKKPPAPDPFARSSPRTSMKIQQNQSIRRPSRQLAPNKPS
Sequence of EGFR (human) (P00533 whole entry, looked up): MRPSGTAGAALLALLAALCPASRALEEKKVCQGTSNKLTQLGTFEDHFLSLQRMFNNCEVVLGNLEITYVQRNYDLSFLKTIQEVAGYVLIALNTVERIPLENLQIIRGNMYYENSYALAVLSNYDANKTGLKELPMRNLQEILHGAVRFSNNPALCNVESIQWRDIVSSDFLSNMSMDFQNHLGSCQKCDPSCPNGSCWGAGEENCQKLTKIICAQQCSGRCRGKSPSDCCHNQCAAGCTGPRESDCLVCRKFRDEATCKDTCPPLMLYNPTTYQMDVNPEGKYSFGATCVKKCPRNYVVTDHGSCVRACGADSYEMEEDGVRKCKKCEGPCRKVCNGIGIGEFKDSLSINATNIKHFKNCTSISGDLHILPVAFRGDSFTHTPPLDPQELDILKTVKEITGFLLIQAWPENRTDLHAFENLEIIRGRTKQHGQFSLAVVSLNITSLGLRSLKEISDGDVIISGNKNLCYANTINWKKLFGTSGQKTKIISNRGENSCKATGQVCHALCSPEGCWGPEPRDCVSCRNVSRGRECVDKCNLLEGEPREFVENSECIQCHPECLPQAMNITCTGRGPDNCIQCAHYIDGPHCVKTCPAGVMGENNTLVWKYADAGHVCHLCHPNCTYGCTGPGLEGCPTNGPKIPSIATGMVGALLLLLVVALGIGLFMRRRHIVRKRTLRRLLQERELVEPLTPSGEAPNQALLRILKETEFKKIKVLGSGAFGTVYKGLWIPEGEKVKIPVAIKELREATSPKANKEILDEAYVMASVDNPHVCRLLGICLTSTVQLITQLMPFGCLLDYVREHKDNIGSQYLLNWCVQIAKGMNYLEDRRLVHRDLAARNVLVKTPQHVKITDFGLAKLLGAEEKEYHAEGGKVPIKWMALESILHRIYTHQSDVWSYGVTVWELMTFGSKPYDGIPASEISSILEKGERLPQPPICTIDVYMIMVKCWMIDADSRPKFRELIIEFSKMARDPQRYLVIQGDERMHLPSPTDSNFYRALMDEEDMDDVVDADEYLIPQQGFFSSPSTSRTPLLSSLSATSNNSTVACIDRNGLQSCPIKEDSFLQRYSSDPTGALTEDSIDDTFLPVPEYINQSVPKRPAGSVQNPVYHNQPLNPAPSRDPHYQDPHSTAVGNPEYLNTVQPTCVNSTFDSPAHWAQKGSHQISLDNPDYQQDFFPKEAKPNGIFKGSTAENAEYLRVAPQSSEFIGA

SMILES | Ki [1] [µM] | Ki [2] [µM] | Ki [3] [µM]
COc1cc2ncn(-c3cc(OCc4ccccc4C(F)(F)F)c(C(N)=O)s3)c2cc1OC | 0.251 | > 7.94 | 
CC(=O)n1ncc2cc(N)ccc21 |  |  | 7.94
COc1c(-c2nc3ccccc3[nH]2)c(O)cc2oc(C)cc(=O)c12 |  |  | 3.98
Fc1cccc(CNc2ncnc3[nH]cnc23)c1 |  |  | 15.8
O=C(Cc1cccs1)Nc1nc2ccccc2s1 |  |  | 3.98
NC(=O)c1ccc2nc(-c3ccc([N+](=O)[O-])o3)cn2c1 |  |  | 3.16

Continued, values first:

Ki [1] [µM] | Ki [2] [µM] | Ki [3] [µM] | SMILES
 | > 1 | 3.16 | O=C(Nc1cc(-c2c[nH]c3ncccc23)cc(Cl)n1)c1ccccc1
 |  | 0.794 | CCN(CCN(C)C)C(=O)c1cccc(-n2nc(C(C)(C)C)cc2NC(=O)Nc2cccc3ccccc23)c1
 |  | 0.631 | CC(C)(C)c1cc(NC(=O)Nc2cccc3ccccc23)n(-c2cccc(C(=O)N(CCN)CCO)c2)n1
 |  | 0.631 | CC(C)(C)c1cc(NC(=O)C(=O)c2cccc3ccccc23)n(-c2ccc(OCCC(N)=O)cc2)n1
 |  | 0.794 | CC(C)CC(NC(=O)c1cccc(-n2nc(C(C)(C)C)cc2NC(=O)Nc2cccc3ccccc23)c1)C(N)=O (stereo not given)
 |  | 2.51 | Cc1ccc(-c2cc(-c3cc(Br)ccc3O)[nH]c(=O)c2C#N)s1
 |  | 2.51 | CC(C)(C)c1cc(NC(=O)c2cc3ccccc3s2)n(-c2ccc(OCC(=O)O)cc2)n1
